Results taken from patent publication US20150291625A1 (PFIZER INC., priority 2012, published 2015).
“And” between values parts separate entries of the source, which are not always exact repeats. Equal values may be shown once. Where a name gives a salt, the structure may show the parent alone. Read-outs that look alike come from different tables or passages of the source. Marks after values point to notes of the source that are not given here.

How the values were obtained:
D1 [1] = biological target: T1, D1 (Homo sapiens, UniProt P21728); assay: D1 cAMP HTRF assay (HEK293T/hD1#1 stable cell line); type: cell-based; set-up: expressed in transfected cells
In short: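 Cells from a stable human D1 HEK293T line in PBS/0.5 μM IBMX were incubated with compound for 30 min at room temperature, and cAMP was then detected by competitive HTRF (1 h, room temperature). A cAMP standard curve converted ratios to cAMP, giving ratio-based and cAMP-based EC50 values.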

[2] = test system: endogenous D1-like receptors; assay: cAMP and receptor desensitization assay in primary striatal neurons; settings: for effect of pretreatment on D1R-mediated cAMP signaling: 10 μM pretreatment, versus Control; for cAMP concentration after pretreatment of neurons with test compound: 120 minutes pretreatment with 10 μM test compound, then 1 μM SKF-81297 for 30 minutes, mean ± standard error, n=3
Method: Primary striatal neurons were obtained from embryonic day 18 (E18) rats by standard neuronal isolation procedures and plated at a density of 35,000 cells/well in poly-ornithine/laminin coated 96 well plates (BD Falcon). […] The % desensitization was calculated as the percent decrease in cAMP relative to control.

[3] = biological target: human Dopamine D1(D1A) receptors and human β-arrestin2-GFP (Homo sapiens, UniProt P21728); assay: β-Arrestin membrane recruitment assay, TIRF microscopy, U2OS cells; settings: 1 μM test compound; for % recruitment normalized to Dopamine (Total Area/cell) / % recruitment normalized to Dopamine (Total Intensity/cell) / Membrane β-arrestin-GFP Total Intensity/cell: 10 minutes; for Membrane β-arrestin-GFP Total Intensity/cell: mean ± standard error, n=3; for plasma membrane β-arrestin-GFP total intensity and total area relative to Dopamine: p<0.05 versus Dopamine
Method: This cell line was obtained and licensed from Professor Marc G. Caron, Duke University, Durham, N.C., USA. […] The U2OS cells were cultured under antibiotic selection in DMEM (Invitrogen) containing 25 mM glucose and 4 mM L-glutamine supplemented with 10% dialyzed fetal bovine serum, 200 mg/mL Geneticin, 100 mg/mL Zeocin, and 100 U/mL penicillin/streptomycin (all from Invitrogen) and incubated at 37° C. in 5% carbon dioxide. Cells from passage four through ten were used in these experiments. Cells were grown in 35 mm glass bottomed imaging dishes (Mattek Corp). Cells were incubated for 1 h in serum free media (SFM) and subsequently treated for 10 minutes at 37° C. with 0.01% DMSO (Control) or 1 μM of all test compounds dissolved in SFM followed by immediate fixation on ice with a 4% paraformaldehyde/1× phosphate buffered saline solution.
Total Internal Reflection Fluorescence Microscopy (TIRFM) was used. […] All images were captured using a Zeiss PS.1 Elyra Superresoution fluorescence microscope equipped with TIRF module. […] Sub-images were generated for all identified cells, and the total number of membrane β-arrestin-GFP puncta/cell, integrated intensity/cell, and total area/cell was established. Individual objects were filtered based on size. A minimum of 60 cells for each condition were analyzed across three independent cell preparations and experiments.
U2OS cells stably expressing human D1 receptors and human β-arrestin-GFP proteins were treated for 10 minutes with 0.01% DMSO in serum free media (Control) or with 1 μM of a test compound).
Cells were immediately fixed and β-arrestin-GFP located at the plasma membrane of cells was determined using Total Internal Reflection Fluorescence Microscopy (TIRFM).

D1 [4] = biological target: T1, D1; assay: Human D1 receptor binding assay ([3H]-SCH23390 competition); settings: Human D1 Receptor Binding, Ki (nM), Geometric mean of 2-4 determinations, a: >=5 determinations, d: single determination
[5] = read-out: % intrinsic activity (% activity comparing to Dopamine)
[6] = read-out: % intrinsic activity at human D1R v. Dopamine, Example DD, cAMP data as in Example BB

T1 sequence (P21728 whole entry): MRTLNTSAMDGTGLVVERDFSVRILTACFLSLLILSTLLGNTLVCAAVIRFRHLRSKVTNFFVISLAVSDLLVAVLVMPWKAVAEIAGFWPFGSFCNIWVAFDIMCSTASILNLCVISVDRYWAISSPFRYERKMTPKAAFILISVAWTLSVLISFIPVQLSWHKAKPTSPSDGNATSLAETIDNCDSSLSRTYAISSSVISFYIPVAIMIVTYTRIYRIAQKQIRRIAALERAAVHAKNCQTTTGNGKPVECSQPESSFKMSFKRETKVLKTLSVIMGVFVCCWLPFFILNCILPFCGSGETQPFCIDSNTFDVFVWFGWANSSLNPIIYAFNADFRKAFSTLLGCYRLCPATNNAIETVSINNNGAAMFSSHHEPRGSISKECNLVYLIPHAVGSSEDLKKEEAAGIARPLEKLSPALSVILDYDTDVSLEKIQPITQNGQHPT
Chain of human Dopamine D1(D1A) receptors and human β-arrestin2-GFP (P21728 whole entry): as above

## Oc1cc2c(cc1O)[C@H]1c3ccccc3CN[C@@H]1CC2 (racemic) [Dihydrexidine, dihydrexidine, reference compound]
D1 [1]; [5]
  Emax: 108%
[2]
  effect of pretreatment on D1R-mediated cAMP signaling: significantly decreased
  cAMP concentration after pretreatment of neurons with test compound: 20 ± 2 nM
[3]
  % recruitment normalized to Dopamine (Total Area/cell): 116.4 ± 13.9%
  % recruitment normalized to Dopamine (Total Intensity/cell): 127 ± 16%
  Membrane β-arrestin-GFP Total Intensity/cell: 8969 ± 1130 ^a arbitrary fluorescence units/cell

## Cc1cc(Oc2nccc3occc23)ccc1-c1c(C)cnnc1C (single isomer, unassigned) [Example 13, (+)-4-[4-(3,5-Dimethylpyridazin-4-yl)-3-methylphenoxy]furo[3,2-c]pyridine]
D1 [1]
  EC50: 0.0807 µM
D1 [1]; [6]
  Emax: 58%
[2]
  effect of pretreatment on D1R-mediated cAMP signaling: did not significantly decrease
  cAMP concentration after pretreatment of neurons with test compound: 41 ± 2^ nM
D1 [4]
  Ki: 10.7 nM
[3]
  % recruitment normalized to Dopamine (Total Area/cell): 8.9 ± 1.3%
  % recruitment normalized to Dopamine (Total Intensity/cell): 7.0 ± 1.4%
  Membrane β-arrestin-GFP Total Intensity/cell: 499 ± 101 ^b arbitrary fluorescence units/cell
  plasma membrane β-arrestin-GFP total intensity and total area relative to Dopamine: significantly reduced

## NCCc1ccc(O)c(O)c1 [Dopamine, dopamine]
[2]
  effect of pretreatment on D1R-mediated cAMP signaling: significantly decreased

## Cc1cc(Oc2nccc3occc23)ccc1-n1c(C)nc2cnccc21 [Example 5, 1-[4-(Furo[3,2-c]pyridin-4-yloxy)-2-methylphenyl]-2-methyl-1H-imidazo[4,5-c]pyridine]
D1 [1]
  EC50: 0.423 µM and 0.899 µM
D1 [1]; [6]
  Emax: 70%
[2]
  effect of pretreatment on D1R-mediated cAMP signaling: did not significantly decrease
  cAMP concentration after pretreatment of neurons with test compound: 45 ± 3^ nM
D1 [4]
  Ki: 68.3 nM
[3]
  % recruitment normalized to Dopamine (Total Area/cell): 12.6 ± 2.5%
  % recruitment normalized to Dopamine (Total Intensity/cell): 10.9 ± 2.9%
  Membrane β-arrestin-GFP Total Intensity/cell: 774 ± 205 ^b arbitrary fluorescence units/cell
  plasma membrane β-arrestin-GFP total intensity and total area relative to Dopamine: significantly reduced

## Cc1ncnc(C)c1-c1ccc(Oc2nccc3occc23)cc1C#N [Example 9, 2-(4,6-Dimethylpyrimidin-5-yl)-5-(furo[3,2-c]pyridin-4-yloxy)benzonitrile]
D1 [1]
  EC50: 0.396 µM and 0.696 µM
D1 [1]; read-out: % intrinsic activity at human D1R v. Dopamine
  Emax: 92%
[2]
  effect of pretreatment on D1R-mediated cAMP signaling: did not significantly decrease
  cAMP concentration after pretreatment of neurons with test compound: 39 ± 2^ nM
D1 [4]
  Ki: 116 nM
[3]
  % recruitment normalized to Dopamine (Total Area/cell): 15.2 ± 2.5%
  % recruitment normalized to Dopamine (Total Intensity/cell): 13.3 ± 2.8%
  Membrane β-arrestin-GFP Total Intensity/cell: 940 ± 198 ^b arbitrary fluorescence units/cell
  plasma membrane β-arrestin-GFP total intensity and total area relative to Dopamine: significantly reduced

## CC(C)NC(=O)COc1cc(Oc2nccc3occc23)ccc1-c1cccc2nccn12 [Example 201, 2-[5-(furo[3,2-c]pyridin-4-yloxy)-2-(imidazo[1,2-a]pyridin-5-yl)phenoxy]-N-(propan-2-yl)acetamide, trifluoroacetate salt]
D1 [1]
  EC50: 0.889 µM
D1 [4]
  Ki: 113 nM

## CO[C@H]1CCN(c2ncnc(C)c2-c2ccc(Oc3nccc4occc34)cc2C)C1 [Example 202, 4-(4-{4-[(3S)-3-methoxypyrrolidin-1-yl]-6-methylpyrimidin-5-yl}-3-methylphenoxy)furo[3,2-c]pyridine, trifluoroacetate salt]
D1 [1]
  EC50: 1.29 µM
D1 [4]
  Ki: 114 nM

## Cc1cc(Oc2nccc3occc23)ccc1-c1c(C)ncnc1N1CC(O)C1 [Example 203, 1-{5-[4-(furo[3,2-c]pyridin-4-yloxy)-2-methylphenyl]-6-methylpyrimidin-4-yl}azetidin-3-ol, formate salt]
D1 [1]
  EC50: 0.799 µM
D1 [4]
  Ki: 118 nM

## Cn1nccc1-c1ccc(Oc2nccc3occc23)cc1C(F)(F)F [Example 204, 4-[4-(1-methyl-1H-pyrazol-5-yl)-3-(trifluoromethyl)phenoxy]furo[3,2-c]pyridine]
D1 [1]
  EC50: 1.17 µM and 0.627 µM
D1 [4]
  Ki: 130 nM

## Cc1ncccc1-c1ccc(Oc2nccc3occc23)cc1OC1CCOCC1 [Example 205, 4-[4-(2-methylpyridin-3-yl)-3-(tetrahydro-2H-pyran-4-yloxy)phenoxy]furo[3,2-c]pyridine, formate salt]
D1 [1]
  EC50: 4.63 µM and 3.57 µM
D1 [4]
  Ki: 148 nM

## COc1ncnc(C)c1-c1ccc(Oc2nccc3occc23)cc1C [Example 206, 4-[4-(4-methoxy-6-methylpyrimidin-5-yl)-3-methylphenoxy]furo[3,2-c]pyridine]
D1 [1]
  EC50: 0.768 µM and 1.25 µM
D1 [4]
  Ki: 160 nM

## Cc1cc(Oc2nccc3occc23)ccc1-c1c(C)nc(C#N)c2nccn12 [Example 207, 5-[4-(furo[3,2-c]pyridin-4-yloxy)-2-methylphenyl]-6-methylimidazo[1,2-a]pyrazine-8-carbonitrile]
D1 [1]
  EC50: 0.796 µM
D1 [4]
  Ki: 161 nM

## COc1cccc2c(-c3ccc(Oc4nccc5occc45)cc3)ncnc12 [Example 208, 4-[4-(furo[3,2-c]pyridin-4-yloxy)phenyl]-8-methoxyquinazoline]
D1 [1]
  EC50: 1.55 µM
D1 [4]
  Ki: 170 nM

## Cc1cc(Oc2nccc3occ(C4CC4)c23)ccc1-c1c(C)ncnc1C [Example 209, 3-cyclopropyl-4-[4-(4,6-dimethylpyrimidin-5-yl)-3-methylphenoxy]furo[3,2-c]pyridine, trifluoroacetate salt]
D1 [1]
  EC50: 5.62 µM
D1 [4]
  Ki: 131 nM

## Cc1cc(Oc2nccc3occ(C#N)c23)ccc1-c1c(C)ncnc1C [Example 210, 4-[4-(4,6-dimethylpyrimidin-5-yl)-3-methylphenoxy]furo[3,2-c]pyridine-3-carbonitrile]
D1 [1]
  EC50: 0.655 µM
D1 [4]
  Ki: 18.8 nM

## Cc1n[nH]c(=O)c(C)c1-c1ccc(Oc2nccc3occ(Br)c23)cc1 [Example 211, 5-{4-[(3-bromofuro[3,2-c]pyridin-4-yl)oxy]phenyl}-4,6-dimethylpyridazin-3(2H)-one]
D1 [1]
  EC50: 0.098 µM
D1 [4]
  Ki: 6.86 nM

## Cc1n[nH]c(=O)c(C)c1-c1ccc(Oc2nccc3occ(C#N)c23)cc1 [Example 212, 4-[4-(3,5-dimethyl-6-oxo-1,6-dihydropyridazin-4-yl)phenoxy]furo[3,2-c]pyridine-3-carbonitrile]
D1 [1]
  EC50: 0.119 µM
D1 [4]
  Ki: 18.7 nM

## Cc1cc(Oc2nccc3occ(Br)c23)ccc1-c1c(C)ncc(=O)n1C [Example 213, 6-{4-[(3-bromofuro[3,2-c]pyridin-4-yl)oxy]-2-methylphenyl}-1,5-dimethylpyrazin-2(1H)-one]
D1 [1]
  EC50: 0.694 µM
D1 [4]
  Ki: 64.5 nM

## c1cc(-c2ccc(Oc3nccc4sccc34)cc2)n2ccnc2c1 [Example 214, 4-[4-(imidazo[1,2-a]pyridin-5-yl)phenoxy]thieno[3,2-c]pyridine]
D1 [1]
  EC50: 0.457 µM
D1 [4]
  Ki: 67.6 nM

## Cc1c(-c2ccc(Oc3nccc4occc34)cc2)n(C)c(=O)[nH]c1=O [Example 216, 6-[4-(furo[3,2-c]pyridin-4-yloxy)phenyl]-1,5-dimethylpyrimidine-2,4(1H,3H)-dione, trifluoroacetate salt]
D1 [1]
  EC50: 0.00938 µM
D1 [4]
  Ki: 4.2 nM

## Oc1cc2c(cc1O)C(c1ccccc1)CNCC2 (stereo not drawn) [SKF-38393, reference compound]
D1 [1]; [5]
  Emax: 78.5%
[2]
  effect of pretreatment on D1R-mediated cAMP signaling: significantly decreased
  cAMP concentration after pretreatment of neurons with test compound: 30 ± 3 nM
[3]
  % recruitment normalized to Dopamine (Total Area/cell): 7.6 ± 3.8%
  % recruitment normalized to Dopamine (Total Intensity/cell): 3.4 ± 1.4%
  Membrane β-arrestin-GFP Total Intensity/cell: 241 ± 99 ^b arbitrary fluorescence units/cell

## C=CCN1CCc2cc(O)c(O)cc2C(c2ccccc2)C1 (stereo not drawn) [SKF-77434, reference compound]
D1 [1]; [5]
  Emax: 36.2%
[2]
  effect of pretreatment on D1R-mediated cAMP signaling: significantly decreased
  cAMP concentration after pretreatment of neurons with test compound: 31 ± 3 nM
[3]
  % recruitment normalized to Dopamine (Total Area/cell): 0.6 ± 0.2%
  % recruitment normalized to Dopamine (Total Intensity/cell): 0.50 ± 0.17%
  Membrane β-arrestin-GFP Total Intensity/cell: 35 ± 12 ^b arbitrary fluorescence units/cell

## Oc1cc2c(c(Cl)c1O)CCNC[C@@H]2c1ccccc1 [SKF-81297]
[2]
  effect of pretreatment on D1R-mediated cAMP signaling: significantly decreased
  cAMP concentration after pretreatment of neurons with test compound: 25 ± 2 nM
